According to the supplement of paper PMC11208160:

Assay: recombinant barcode read abundance after kanamycin selection (control-corrected) (log10(CPM+1)); higher = more efficient recombination; sequences stand for … in AGTGCAGAGAAAATCGGCCAGTTTTCTCTGCCTGCAGTCCGCATGCCGT…AGATTTATGCAGCGGACTGCCTTTCTCCCAAAGTGATAAACCGGACAGTATCATGGACCGGTTTTCCCGGTAATCCGTATTTGCAAGGTTGGTTTCACT; site = the 11-nt target
Method in brief: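 A promoter, a target, a barcode and the first 104 bridge RNA bases under J23119 made up each oligo. Oligos were Gibson-cloned into a vector bearing the other 73 bp and a T7-inducible recombinase, then co-electroporated into E. coli with a donor plasmid and plated in duplicate on chloramphenicol/ampicillin LB agar (control) or chloramphenicol/ampicillin/kanamycin with 0.1 mM IPTG. Recombination efficiency is the averaged, control-corrected counts per million of recombinant-junction barcodes. Reported values are log10(CPM+1).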
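Further: IS621 recombinase and bridge RNA in Escherichia coli cells.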

Row | Sequence | recombinant barcode read abundance (log10)
1 | GTTGGTCCTTGGGTTCTAACCTGTTGCGT (site GTGAGTCCTAC) | 0.136
2 | GTTGGTCCTTGGGTTCTAACCTGTTGCGT (site GTTGGTCCTAC) | 2.76
3 | GTTTAAACTTGGGTTCTAACCTGTTGCCT (site GTTTAAACTAG) | 0.809
4 | GTTTAAACTTGGGTTCTAACCTGTTGCCT (site GTTTACGCTAG) | 0.0493
5 | GTTTACGCTTGGGTTCTAACCTGTTGCCT (site GTTTAAACTAG) | 0.0797
6 | GTTTACGCTTGGGTTCTAACCTGTTGCCT (site GTTTACGCTAG) | 1.96
7 | GTTTCTACTTGGGTTCTAACCTGTTGCTA (site ATTTCTACTTC) | 0.128
8 | GTTTCTACTTGGGTTCTAACCTGTTGCTA (site GTTTCTACTTA) | 0.0482
9 | GTTTCTTCTTGGGTTCTAACCTGTTGCCT (site GATTCTTCTAG) | 0.304
10 | GTTTCTTCTTGGGTTCTAACCTGTTGCCT (site GCTTCTTCTAG) | 0.0824
11 | GTTTCTTCTTGGGTTCTAACCTGTTGCCT (site GGTTCTTCTAG) | 0.171
12 | GTTTCTTCTTGGGTTCTAACCTGTTGCCT (site GTTTCTTCTAG) | 0.0189
13 | GTTTGATCTTGGGTTCTAACCTGTTGCCT (site GTTTGATCTAG) | 0.172
14 | GTTTGATCTTGGGTTCTAACCTGTTGCCT (site GTTTGCTCTAG) | 0.029
15 | GTTTGATCTTGGGTTCTAACCTGTTGCCT (site GTTTGGTCTAG) | 0.212
16 | GTTTGATCTTGGGTTCTAACCTGTTGCCT (site GTTTGTTCTAG) | 0
17 | GTTTGCCCTTGGGTTCTAACCTGTTGCTT (site GTTTGACCTAA) | 0.0376
18 | GTTTGCCCTTGGGTTCTAACCTGTTGCTT (site GTTTGCCCTAA) | 0.0681
19 | GTTTGCCCTTGGGTTCTAACCTGTTGCTT (site GTTTGGCCTAA) | 0.0442
20 | GTTTGCCCTTGGGTTCTAACCTGTTGCTT (site GTTTGTCCTAA) | 0.164
21 | GTTTGCTCTTGGGTTCTAACCTGTTGCCT (site GTTTGATCTAG) | 0.0882
22 | GTTTGCTCTTGGGTTCTAACCTGTTGCCT (site GTTTGCTCTAG) | 0.635

Row | Sequence | recombinant barcode read abundance (log10)
23 | GTTTGCTCTTGGGTTCTAACCTGTTGCCT (site GTTTGGTCTAG) | 0.416
24 | GTTTGCTCTTGGGTTCTAACCTGTTGCCT (site GTTTGTTCTAG) | 0.115
25 | GTTTGTCCTTGGGTTCTAACCTGTTGCTT (site GTTTGACCTAA) | 0.178
26 | GTTTGTCCTTGGGTTCTAACCTGTTGCTT (site GTTTGCCCTAA) | 0.0342
27 | GTTTGTCCTTGGGTTCTAACCTGTTGCTT (site GTTTGGCCTAA) | 0.644
28 | GTTTGTCCTTGGGTTCTAACCTGTTGCTT (site GTTTGTCCTAA) | 0.048
29 | TAAAGGCCTTGGGTTCTAACCTGTTGCTA (site CAAAGGTCTTA) | 0.218
30 | TAAAGGCCTTGGGTTCTAACCTGTTGCTA (site TAAAGGCCTTA) | 0.159
31 | TAAAGGGCTTGGGTTCTAACCTGTTGCCT (site TAAAGGGCTAG) | 0.4
32 | TAAAGGGCTTGGGTTCTAACCTGTTGCCT (site TAACGGGCTCG) | 0.0341
33 | TAAATAGCTTGGGTTCTAACCTGTTGCCT (site TAAATAGCTAG) | 0.881
34 | TAAATAGCTTGGGTTCTAACCTGTTGCCT (site TAATTAGCTAG) | 0.243
35 | TAAATCCCTTGGGTTCTAACCTGTTGCGA (site ACGGAATCTCG) | 0.0648
36 | TAAATCCCTTGGGTTCTAACCTGTTGCGA (site TAAATCCCTTC) | 1.22
37 | TAACATACTTGGGTTCTAACCTGTTGCAT (site TAACATACTAT) | 1.22
38 | TAACATACTTGGGTTCTAACCTGTTGCAT (site TAACCTACTAT) | 0.139
39 | TAACATACTTGGGTTCTAACCTGTTGCAT (site TAACGTACTAT) | 0.233
40 | TAACATACTTGGGTTCTAACCTGTTGCAT (site TAACTTACTAT) | 0.0391
41 | TAACCATCTTGGGTTCTAACCTGTTGCCT (site TAACCATCTAG) | 0.266
42 | TAACCATCTTGGGTTCTAACCTGTTGCCT (site TACCCATCTAG) | 0.0574
43 | TAACCATCTTGGGTTCTAACCTGTTGCCT (site TAGCCATCTAG) | 0.0156
44 | TAACCATCTTGGGTTCTAACCTGTTGCCT (site TATCCATCTAG) | 0.0811

Row | Sequence | recombinant barcode read abundance (log10)
45 | TAACCTGCTTGGGTTCTAACCTGTTGCCT (site TAACCTACTAG) | 0.532
46 | TAACCTGCTTGGGTTCTAACCTGTTGCCT (site TAACCTCCTAG) | 0.0336
47 | TAACCTGCTTGGGTTCTAACCTGTTGCCT (site TAACCTGCTAG) | 0.889
48 | TAACCTGCTTGGGTTCTAACCTGTTGCCT (site TAACCTTCTAG) | 0.624
49 | TAACCTTCTTGGGTTCTAACCTGTTGCCT (site TAACCTACTAG) | 0
50 | TAACCTTCTTGGGTTCTAACCTGTTGCCT (site TAACCTCCTAG) | 0.019
51 | TAACCTTCTTGGGTTCTAACCTGTTGCCT (site TAACCTGCTAG) | 0.00987
52 | TAACCTTCTTGGGTTCTAACCTGTTGCCT (site TAACCTTCTAG) | 0.472
53 | TAAGACCCTTGGGTTCTAACCTGTTGCCT (site TAAGACCCTAG) | 2.33
54 | TAAGACCCTTGGGTTCTAACCTGTTGCCT (site TCAGACCCTAG) | 0.454
55 | TAAGACGCTTGGGTTCTAACCTGTTGCCT (site TAAGACGCTAG) | 2.33
56 | TAAGACGCTTGGGTTCTAACCTGTTGCCT (site TACGACGCTAG) | 0.0565
57 | TAAGACGCTTGGGTTCTAACCTGTTGCCT (site TAGGACGCTAG) | 0.729
58 | TAAGACGCTTGGGTTCTAACCTGTTGCCT (site TATGACGCTAG) | 1.05
59 | TAAGGTCCTTGGGTTCTAACCTGTTGCTT (site AGGTCAACTCG) | 0.224
60 | TAAGGTCCTTGGGTTCTAACCTGTTGCTT (site TAAGGTCCTAA) | 1.49
61 | TAAGTACCTTGGGTTCTAACCTGTTGCCT (site AAAGTACCTAG) | 1.12
62 | TAAGTACCTTGGGTTCTAACCTGTTGCCT (site CAAGTACCTAG) | 0.517
63 | TAAGTACCTTGGGTTCTAACCTGTTGCCT (site GAAGTACCTAG) | 0.029
64 | TAAGTACCTTGGGTTCTAACCTGTTGCCT (site TAAGTACCTAG) | 1.88
65 | TAATATTCTTGGGTTCTAACCTGTTGCCT (site TAATATTCTAG) | 0.0128
66 | TAATATTCTTGGGTTCTAACCTGTTGCCT (site TAGGATTCTAG) | 0.041

Row | Sequence | recombinant barcode read abundance (log10)
67 | TAATCCTCTTGGGTTCTAACCTGTTGCCT (site AAATCCTCTAG) | 0.984
68 | TAATCCTCTTGGGTTCTAACCTGTTGCCT (site CAATCCTCTAG) | 0.0292
69 | TAATCCTCTTGGGTTCTAACCTGTTGCCT (site GAATCCTCTAG) | 0.0754
70 | TAATCCTCTTGGGTTCTAACCTGTTGCCT (site TAATCCTCTAG) | 1.3
71 | TAATCGACTTGGGTTCTAACCTGTTGCCT (site TAATCGACTAG) | 0.102
72 | TAATCGACTTGGGTTCTAACCTGTTGCCT (site TAATCGCCTAG) | 0.643
73 | TAATCGACTTGGGTTCTAACCTGTTGCCT (site TAATCGGCTAG) | 0
74 | TAATCGACTTGGGTTCTAACCTGTTGCCT (site TAATCGTCTAG) | 0.0431
75 | TAATGGCCTTGGGTTCTAACCTGTTGCGA (site ATGAACACTCA) | 0.0388
76 | TAATGGCCTTGGGTTCTAACCTGTTGCGA (site TAATGGCCTTC) | 0.942
77 | TAATGTACTTGGGTTCTAACCTGTTGCCT (site TAATGAACTAG) | 0.125
78 | TAATGTACTTGGGTTCTAACCTGTTGCCT (site TAATGTACTAG) | 0.556
79 | TAATTAGCTTGGGTTCTAACCTGTTGCCT (site TAAATAGCTAG) | 0.0142
80 | TAATTAGCTTGGGTTCTAACCTGTTGCCT (site TAATTAGCTAG) | 0.435
81 | TACAAGACTTGGGTTCTAACCTGTTGCGT (site GGACCCTCTGT) | 0.168
82 | TACAAGACTTGGGTTCTAACCTGTTGCGT (site TACAAGACTAC) | 1.36
83 | TACAAGTCTTGGGTTCTAACCTGTTGCCT (site CTACGACCTCC) | 0.289
84 | TACAAGTCTTGGGTTCTAACCTGTTGCCT (site TACAAGTCTAG) | 0.625
85 | TACAGACCTTGGGTTCTAACCTGTTGCCT (site AACAGACCTAG) | 0.11
86 | TACAGACCTTGGGTTCTAACCTGTTGCCT (site CACAGACCTAG) | 0.197
